Measurements as given in PubChem BioAssay (NCI).
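Briefly, cells in 96-well plates were exposed to five compound concentrations for 48 h, and endpoints were estimated by linear interpolation. At the TGI there is no net growth.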

Legend:
Experiment in all cases: growth of human tumour cells (NCI), 48 h
MCF7 breast = tested on: MCF7 breast
786-0 renal = tested on: 786-0 renal
ACHN renal = tested on: ACHN renal
RXF 393 renal = tested on: RXF 393 renal
SF-295 CNS = tested on: SF-295 CNS
HL-60(TB) leukemia = tested on: HL-60(TB) leukemia
NCI-H460 lung = tested on: NCI-H460 lung
SN12C renal = tested on: SN12C renal
OVCAR-4 ovarian = tested on: OVCAR-4 ovarian
CAKI-1 renal = tested on: CAKI-1 renal
UO-31 renal = tested on: UO-31 renal
MDA-N = tested on: MDA-N
NCI-H226 lung = tested on: NCI-H226 lung
COLO 205 colon = tested on: COLO 205 colon
HCT-116 colon = tested on: HCT-116 colon
SK-MEL-28 melanoma = tested on: SK-MEL-28 melanoma
MOLT-4 leukemia = tested on: MOLT-4 leukemia
DU-145 prostate = tested on: DU-145 prostate
SNB-19 CNS = tested on: SNB-19 CNS
HS 578T breast = tested on: HS 578T breast
NCI/ADR-RES ovarian = tested on: NCI/ADR-RES ovarian
SW-620 colon = tested on: SW-620 colon
OVCAR-8 ovarian = tested on: OVCAR-8 ovarian
MDA-MB-435 = tested on: MDA-MB-435
HOP-92 NSCLC = tested on: HOP-92 NSCLC
MALME-3M melanoma = tested on: MALME-3M melanoma
KM12 colon = tested on: KM12 colon
SK-MEL-2 melanoma = tested on: SK-MEL-2 melanoma
A498 renal = tested on: A498 renal
NCI-H522 lung = tested on: NCI-H522 lung
SF-539 CNS = tested on: SF-539 CNS
UACC-62 melanoma = tested on: UACC-62 melanoma
SK-MEL-5 melanoma = tested on: SK-MEL-5 melanoma
IGROV1 ovarian = tested on: IGROV1 ovarian
SF-268 CNS = tested on: SF-268 CNS
TK-10 renal = tested on: TK-10 renal
SNB-75 CNS = tested on: SNB-75 CNS
M14 melanoma = tested on: M14 melanoma
MDA-MB-231 breast = tested on: MDA-MB-231 breast
HCT-15 colon = tested on: HCT-15 colon
UACC-257 melanoma = tested on: UACC-257 melanoma
OVCAR-3 ovarian = tested on: OVCAR-3 ovarian
SR leukemia = tested on: SR leukemia
SK-OV-3 ovarian = tested on: SK-OV-3 ovarian
U251 CNS = tested on: U251 CNS
T-47D breast = tested on: T-47D breast
HCC-2998 colon = tested on: HCC-2998 colon
HT29 colon = tested on: HT29 colon
NCI-H23 lung = tested on: NCI-H23 lung
HOP-62 NSCLC = tested on: HOP-62 NSCLC
A549 NSCLC = tested on: A549 NSCLC
OVCAR-5 ovarian = tested on: OVCAR-5 ovarian
K-562 leukemia = tested on: K-562 leukemia
LOX IMVI melanoma = tested on: LOX IMVI melanoma
PC-3 prostate = tested on: PC-3 prostate
CCRF-CEM leukemia = tested on: CCRF-CEM leukemia
RPMI-8226 leukemia = tested on: RPMI-8226 leukemia
EKVX NSCLC = tested on: EKVX NSCLC
BT-549 breast = tested on: BT-549 breast

## COc1cc(S(=O)(=O)Nc2nc(-c3ccc(N4C(=O)C(CC(=O)O)SC4c4cccs4)cc3)cs2)ccc1Cl (stereo unspecified)
MCF7 breast
  TGI: 65.8 µM
786-0 renal
  TGI: > 100 µM
ACHN renal
  TGI: > 100 µM
RXF 393 renal
  TGI: 32.5 µM
SF-295 CNS
  TGI: > 100 µM
HL-60(TB) leukemia
  TGI: 74 µM
NCI-H460 lung
  TGI: > 100 µM
SN12C renal
  TGI: > 100 µM
OVCAR-4 ovarian
  TGI: 66.4 µM
CAKI-1 renal
  TGI: > 100 µM
UO-31 renal
  TGI: 45.2 µM
MDA-N
  TGI: > 100 µM
NCI-H226 lung
  TGI: > 100 µM
COLO 205 colon
  TGI: > 100 µM
HCT-116 colon
  TGI: > 100 µM
SK-MEL-28 melanoma
  TGI: > 100 µM
MOLT-4 leukemia
  TGI: 64.6 µM
DU-145 prostate
  TGI: > 100 µM
SNB-19 CNS
  TGI: > 100 µM
HS 578T breast
  TGI: > 100 µM
NCI/ADR-RES ovarian
  TGI: 76.6 µM
SW-620 colon
  TGI: 78.8 µM
OVCAR-8 ovarian
  TGI: > 100 µM
MDA-MB-435
  TGI: > 100 µM
HOP-92 NSCLC
  TGI: 89.5 µM
MALME-3M melanoma
  TGI: 72.2 µM
KM12 colon
  TGI: > 100 µM
SK-MEL-2 melanoma
  TGI: 69.7 µM
A498 renal
  TGI: > 100 µM
NCI-H522 lung
  TGI: 37.1 µM
SF-539 CNS
  TGI: > 100 µM
UACC-62 melanoma
  TGI: 48.9 µM
SK-MEL-5 melanoma
  TGI: > 100 µM
IGROV1 ovarian
  TGI: 66 µM
SF-268 CNS
  TGI: 50.9 µM
TK-10 renal
  TGI: > 100 µM
SNB-75 CNS
  TGI: 40.4 µM
M14 melanoma
  TGI: > 100 µM
MDA-MB-231 breast
  TGI: > 100 µM
HCT-15 colon
  TGI: 39.8 µM
UACC-257 melanoma
  TGI: > 100 µM
OVCAR-3 ovarian
  TGI: > 100 µM
SR leukemia
  TGI: 79.1 µM
SK-OV-3 ovarian
  TGI: > 100 µM
U251 CNS
  TGI: > 100 µM
T-47D breast
  TGI: 91.9 µM
HCC-2998 colon
  TGI: > 100 µM
HT29 colon
  TGI: > 100 µM
NCI-H23 lung
  TGI: 49 µM
HOP-62 NSCLC
  TGI: > 100 µM
A549 NSCLC
  TGI: > 100 µM
OVCAR-5 ovarian
  TGI: > 100 µM
K-562 leukemia
  TGI: > 100 µM
LOX IMVI melanoma
  TGI: 39.3 µM
PC-3 prostate
  TGI: > 100 µM

## O=C(/C=C/c1ccc2c(c1)OCO2)Cc1nc2ncccc2[nH]c1=O
MCF7 breast
  TGI: > 100 µM
786-0 renal
  TGI: > 100 µM
ACHN renal
  TGI: > 100 µM
RXF 393 renal
  TGI: > 100 µM
SF-295 CNS
  TGI: > 100 µM
HL-60(TB) leukemia
  TGI: > 100 µM
NCI-H460 lung
  TGI: > 100 µM
SN12C renal
  TGI: > 100 µM
CAKI-1 renal
  TGI: > 100 µM
CCRF-CEM leukemia
  TGI: > 100 µM
UO-31 renal
  TGI: > 100 µM
MDA-N
  TGI: > 100 µM
COLO 205 colon
  TGI: > 100 µM
HCT-116 colon
  TGI: > 100 µM
SK-MEL-28 melanoma
  TGI: > 100 µM
MOLT-4 leukemia
  TGI: > 100 µM
DU-145 prostate
  TGI: > 100 µM
SNB-19 CNS
  TGI: > 100 µM
HS 578T breast
  TGI: > 100 µM
NCI/ADR-RES ovarian
  TGI: > 100 µM
SW-620 colon
  TGI: > 100 µM
OVCAR-8 ovarian
  TGI: > 100 µM
MDA-MB-435
  TGI: > 100 µM
HOP-92 NSCLC
  TGI: > 100 µM
MALME-3M melanoma
  TGI: > 100 µM
KM12 colon
  TGI: > 100 µM
SK-MEL-2 melanoma
  TGI: > 100 µM
A498 renal
  TGI: > 100 µM
NCI-H522 lung
  TGI: > 100 µM
SF-539 CNS
  TGI: > 100 µM
UACC-62 melanoma
  TGI: > 100 µM
SK-MEL-5 melanoma
  TGI: > 100 µM
IGROV1 ovarian
  TGI: > 100 µM
SF-268 CNS
  TGI: > 100 µM
TK-10 renal
  TGI: > 100 µM
M14 melanoma
  TGI: > 100 µM
MDA-MB-231 breast
  TGI: > 100 µM
HCT-15 colon
  TGI: > 100 µM
UACC-257 melanoma
  TGI: > 100 µM
OVCAR-3 ovarian
  TGI: > 100 µM
SR leukemia
  TGI: > 100 µM
SK-OV-3 ovarian
  TGI: > 100 µM
U251 CNS
  TGI: > 100 µM
T-47D breast
  TGI: > 100 µM
RPMI-8226 leukemia
  TGI: > 100 µM
HCC-2998 colon
  TGI: > 100 µM
HT29 colon
  TGI: > 100 µM
NCI-H23 lung
  TGI: > 100 µM
HOP-62 NSCLC
  TGI: > 100 µM
A549 NSCLC
  TGI: > 100 µM
OVCAR-5 ovarian
  TGI: > 100 µM
EKVX NSCLC
  TGI: > 100 µM
BT-549 breast
  TGI: > 100 µM
K-562 leukemia
  TGI: > 100 µM
LOX IMVI melanoma
  TGI: > 100 µM
PC-3 prostate
  TGI: > 100 µM
